Measurements taken from paper PMC4858447 (ACS chemical biology, 2015).
Read-outs that look alike come from different tables or passages of the source.

Legend:
[1] = target: 5FW-Brd4 (first bromodomain of Brd4) (Homo sapiens, UniProt O60885); assay: Protein-observed 19F NMR; type: binding; conditions: for Brd4 19F NMR: 100 μM compound, 50 μM Brd4 and BPTF, 1% DMSO; for binding to Brd4 (in words): PrOF NMR
5FW-BPTF bromodomain = 5FW-BPTF bromodomain (Homo sapiens, UniProt Q12830); assay: Protein-observed 19F NMR; type: binding; conditions: for BPTF 19F NMR: 100 μM compound, 50 μM Brd4 and BPTF, 1% DMSO; for selectivity between BPTF and Brd4 by PrOF NMR (in words): dual screen
Cell viability assay = type: cell-based, human; conditions: human, HEK 293T cells
HEK 293T cells = assay: Cell viability assay; type: cell-based, human; conditions: 24 hours at 3 and 10 μM
[2] = test system: BPTF-regulatory region upstream of Mobkl3 promoter in Eph4 cells; assay: pGL3_Mobkl3p luciferase reporter assay; type: cell-based, mouse; conditions: 5 μM for 12 hours, pGL3_Mobkl3p vector
[3] = read-out: EC50 in five cellular assays; ChEMBL search; targets unknown; cited from earlier work
hepatocytes = conditions: 10 μM compound; cited from earlier work
Brd4 [4] = target: T1, Brd4 (Homo sapiens, UniProt O60885); assay: Fluorescence anisotropy competition against bound BODIPY-BI2536; type: binding
Brd4 [5] = target: T1, Brd4; assay: Differential scanning fluorimetry; type: binding; conditions: DSF, 100 μM inhibitor, 4 μM Brd4

Structure (SMILES) | Brd4 19F NMR [1] | BPTF 19F NMR (5FW-BPTF bromodomain) | selectivity between BPTF and Brd4 by PrOF NMR (in words) (5FW-BPTF bromodomain) | further results
COC(=O)c1cccc(NC(=O)NC2CCN(c3ccnc(Nc4ccc(OC)cc4)n3)C2)c1 (stereo not drawn) [GSK1379746A] | - | +++ | completely selective for BPTF over Brd4 | 
Cc1cnc(Nc2ccc(OCCN3CCCC3)cc2)nc1Nc1cccc(S(=O)(=O)NC(C)(C)C)c1 [TG-101348, reference compound] |  |  | selective for Brd4 over BPTF | 
COC(=O)c1cccc(NC(=O)NC2CCN(c3ccnc(Nc4ccc(F)cc4)n3)C2)c1 (stereo not drawn) [AU1] | - | +++ |  | viability at 48 h, 10 µM (Cell viability assay): 76%; cellular toxicity against HEK 293T cells (HEK 293T cells): no cellular toxicity; loss of luciferase activity [2]: ~ 4 fold; binding to Brd4 (in words) [1]: No binding is detected; EC50 [3]: 500 nM; cellular toxicity in hepatocytes (hepatocytes): did not detect cellular toxicity
O=C(Nc1ccc2c(c1)OCO2)NC1CCN(c2ccnc(Nc3ccc(F)cc3)n2)C1 (stereo not drawn) [GSK1379724A] |  |  |  | binding to Brd4 (in words) [1]: unable to bind; binding to BPTF (in words) (5FW-BPTF bromodomain; PrOF NMR): unable to bind
CN(C)CCOc1ccc(-c2nc(-c3ccncc3)c(-c3ccc4c(c3)CC/C4=N\O)[nH]2)cc1 [SB-590885-AAE] | +++ | - |  | Ki (Brd4 [4]; read-out: Brd4 FP Ki, competition with BODIPY-BI2536, 156 nM Brd4): 400 ± 230 nM; Brd4 ΔTm (Brd4 [5]): 5.1 ± 0.4 °C
COC(=O)c1cccc(NC(=O)NC2CCN(c3ccnc(Nc4cc(OC)c(OC)c(OC)c4)n3)C2)c1 (stereo not drawn) [GSK1379767A] | +++ | +++ |  | 
CCn1c(-c2nonc2N)nc2c(-c3ccccc3)ncc(OCCCN)c21 [GSK260205A] | +++ | +++ |  | 
CCn1c(-c2nonc2N)nc2c(C#CCN)ncc(OCCCN)c21 [GSK561866B] | - | ++ (a resonance from the protein in question has been perturbed by 2 standard deviations in either chemical shift or linewidth) | highly selective for BPTF | 
Oc1ccc(-c2nc(-c3ccncc3)c(-c3ccc(F)cc3)[nH]2)cc1 [SB-202190, reference compound] |  |  | selective for Brd4 over BPTF | 
CCc1ccc(Oc2nccc(-c3c(-c4ccc(F)cc4)ncn3C3CCNCC3)n2)cc1 [SB-242719] | +++ | + (a resonance from the protein in question has been perturbed by 1 standard deviation in either chemical shift or linewidth) |  | Ki (Brd4 [4]): 13000 ± 3000 nM; fold weaker affinity (Brd4 [4]; relative to SB-284851-BT (1)): 40 fold
